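96-well plates; 48 h exposure; 5 concentrations. Endpoints by linear interpolation between flanking doses. Not reached: highest tested concentration assigned. GI50: concentration for 50% inhibition of growth. TGI is the concentration that stops growth completely.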
Columns and labels:
Assay in all cases: DTP human tumour cell line panel, 48 h
786-0 renal = test system: 786-0 renal
A498 renal = test system: A498 renal
A549 NSCLC = test system: A549 NSCLC
ACHN renal = test system: ACHN renal
BT-549 breast = test system: BT-549 breast
CAKI-1 renal = test system: CAKI-1 renal
CCRF-CEM leukemia = test system: CCRF-CEM leukemia
COLO 205 colon = test system: COLO 205 colon
DU-145 prostate = test system: DU-145 prostate
EKVX NSCLC = test system: EKVX NSCLC
HCC-2998 colon = test system: HCC-2998 colon
HCT-116 colon = test system: HCT-116 colon
HCT-15 colon = test system: HCT-15 colon
HL-60(TB) leukemia = test system: HL-60(TB) leukemia
HOP-62 NSCLC = test system: HOP-62 NSCLC
HOP-92 NSCLC = test system: HOP-92 NSCLC
HS 578T breast = test system: HS 578T breast
HT29 colon = test system: HT29 colon
IGROV1 ovarian = test system: IGROV1 ovarian
KM12 colon = test system: KM12 colon
LOX IMVI melanoma = test system: LOX IMVI melanoma
MALME-3M melanoma = test system: MALME-3M melanoma
MCF7 breast = test system: MCF7 breast
MDA-MB-231 breast = test system: MDA-MB-231 breast
MDA-MB-435 = test system: MDA-MB-435
MOLT-4 leukemia = test system: MOLT-4 leukemia
NCI-H226 lung = test system: NCI-H226 lung
NCI-H23 lung = test system: NCI-H23 lung
NCI-H460 lung = test system: NCI-H460 lung
NCI-H522 lung = test system: NCI-H522 lung
NCI/ADR-RES ovarian = test system: NCI/ADR-RES ovarian
OVCAR-3 ovarian = test system: OVCAR-3 ovarian
OVCAR-4 ovarian = test system: OVCAR-4 ovarian
OVCAR-5 ovarian = test system: OVCAR-5 ovarian
OVCAR-8 ovarian = test system: OVCAR-8 ovarian
PC-3 prostate = test system: PC-3 prostate
RPMI-8226 leukemia = test system: RPMI-8226 leukemia
RXF 393 renal = test system: RXF 393 renal
SF-268 CNS = test system: SF-268 CNS
SF-295 CNS = test system: SF-295 CNS
SF-539 CNS = test system: SF-539 CNS
SK-MEL-2 melanoma = test system: SK-MEL-2 melanoma
SK-MEL-28 melanoma = test system: SK-MEL-28 melanoma
SK-MEL-5 melanoma = test system: SK-MEL-5 melanoma
SK-OV-3 ovarian = test system: SK-OV-3 ovarian
SN12C renal = test system: SN12C renal
SNB-19 CNS = test system: SNB-19 CNS
SNB-75 CNS = test system: SNB-75 CNS
SR leukemia = test system: SR leukemia
SW-620 colon = test system: SW-620 colon
T-47D breast = test system: T-47D breast
TK-10 renal = test system: TK-10 renal
U251 CNS = test system: U251 CNS
UACC-257 melanoma = test system: UACC-257 melanoma
UACC-62 melanoma = test system: UACC-62 melanoma
UO-31 renal = test system: UO-31 renal

Work on `O=C(Cc1ccc(/C=C/C(=O)c2ncc[nH]2)cc1)Nc1ccc(Cl)cc1` yielded a GI50 (786-0 renal) of 1.13 µM, a TGI (786-0 renal) of 4.77 µM and a GI50 (A498 renal) of 5.48 µM. It also gave a TGI (A498 renal) of 13 µM, a GI50 (A549 NSCLC) of 6.9 µM and a TGI (A549 NSCLC) greater than 25 µM. The GI50 (ACHN renal) was 4.04 µM, the TGI (ACHN renal) was 7.66 µM and the GI50 (BT-549 breast) was 3.46 µM. It also gave a TGI (BT-549 breast) of 11.2 µM, a GI50 (CAKI-1 renal) of 4.88 µM and a TGI (CAKI-1 renal) of 15.4 µM. The GI50 (CCRF-CEM leukemia) was 1.08 µM, the TGI (CCRF-CEM leukemia) was greater than 25 µM and the GI50 (COLO 205 colon) was 3.01 µM. For the same compound, the TGI (COLO 205 colon) was 7.42 µM, the GI50 (DU-145 prostate) was 1.7 µM and the TGI (DU-145 prostate) was 7.39 µM. For the same compound, the GI50 (EKVX NSCLC) was 5.68 µM, the TGI (EKVX NSCLC) was 20.2 µM and the GI50 (HCC-2998 colon) was 3.73 µM. It also gave a TGI (HCC-2998 colon) of 7.48 µM, a GI50 (HCT-116 colon) of 0.848 µM and a TGI (HCT-116 colon) of 3.41 µM. It also gave a GI50 (HCT-15 colon) of 0.879 µM, a TGI (HCT-15 colon) of 5.99 µM and a GI50 (HL-60(TB) leukemia) of 3.8 µM. For the same compound, the TGI (HL-60(TB) leukemia) was 21.8 µM, the GI50 (HOP-62 NSCLC) was 3.19 µM and the TGI (HOP-62 NSCLC) was 8.78 µM. For the same compound, the GI50 (HOP-92 NSCLC) was 5.74 µM, the TGI (HOP-92 NSCLC) was 20.9 µM and the GI50 (HS 578T breast) was 18.8 µM. It also gave a TGI (HS 578T breast) greater than 25 µM, a GI50 (HT29 colon) of 0.886 µM and a TGI (HT29 colon) of 2.96 µM. The GI50 (IGROV1 ovarian) was 3.59 µM, the TGI (IGROV1 ovarian) was 15.4 µM and the GI50 (KM12 colon) was 1.3 µM. It also gave a TGI (KM12 colon) of 5.23 µM, a GI50 (LOX IMVI melanoma) of 0.87 µM and a TGI (LOX IMVI melanoma) of 3.48 µM. It also gave a GI50 (MALME-3M melanoma) of 6.24 µM, a TGI (MALME-3M melanoma) of 18.5 µM and a GI50 (MCF7 breast) of 0.741 µM. For the same compound, the TGI (MCF7 breast) was 4.73 µM, the GI50 (MDA-MB-231 breast) was 4.27 µM and the TGI (MDA-MB-231 breast) was 14.9 µM. The GI50 (MDA-MB-435) was 4.14 µM, the TGI (MDA-MB-435) was greater than 25 µM and the GI50 (MOLT-4 leukemia) was 1.8 µM. It also gave a TGI (MOLT-4 leukemia) of 24.2 µM, a GI50 (NCI-H226 lung) of 7.5 µM and a TGI (NCI-H226 lung) greater than 25 µM. The GI50 (NCI-H23 lung) was 2.97 µM, the TGI (NCI-H23 lung) was 11.5 µM and the GI50 (NCI-H460 lung) was 3.43 µM. It also gave a TGI (NCI-H460 lung) greater than 25 µM, a GI50 (NCI-H522 lung) of 2.6 µM and a TGI (NCI-H522 lung) of 7.23 µM. It also gave a GI50 (NCI/ADR-RES ovarian) of 5.02 µM, a TGI (NCI/ADR-RES ovarian) greater than 25 µM and a GI50 (OVCAR-3 ovarian) of 1.14 µM. The TGI (OVCAR-3 ovarian) was 4.29 µM, the GI50 (OVCAR-4 ovarian) was 4.11 µM and the TGI (OVCAR-4 ovarian) was greater than 25 µM. It also gave a GI50 (OVCAR-5 ovarian) of 3.3 µM, a TGI (OVCAR-5 ovarian) of 7.78 µM and a GI50 (OVCAR-8 ovarian) of 3.65 µM. For the same compound, the TGI (OVCAR-8 ovarian) was 16 µM, the GI50 (PC-3 prostate) was 2.39 µM and the TGI (PC-3 prostate) was 7.45 µM. It also gave a GI50 (RPMI-8226 leukemia) of 0.857 µM, a TGI (RPMI-8226 leukemia) of 3.92 µM and a GI50 (RXF 393 renal) of 3.05 µM. It also gave a TGI (RXF 393 renal) of 6.93 µM, a GI50 (SF-268 CNS) of 1.65 µM and a TGI (SF-268 CNS) greater than 25 µM. For the same compound, the GI50 (SF-295 CNS) was 3.33 µM, the TGI (SF-295 CNS) was 9.32 µM and the GI50 (SF-539 CNS) was 3.33 µM. The TGI (SF-539 CNS) was 7.03 µM, the GI50 (SK-MEL-2 melanoma) was 5.53 µM and the TGI (SK-MEL-2 melanoma) was 14.6 µM. The GI50 (SK-MEL-28 melanoma) was 4.81 µM, the TGI (SK-MEL-28 melanoma) was 11.7 µM and the GI50 (SK-MEL-5 melanoma) was 6.16 µM. It also gave a TGI (SK-MEL-5 melanoma) of 17.4 µM, a GI50 (SK-OV-3 ovarian) of 9.74 µM and a TGI (SK-OV-3 ovarian) greater than 25 µM. It also gave a GI50 (SN12C renal) of 2.4 µM, a TGI (SN12C renal) of 6.91 µM and a GI50 (SNB-19 CNS) of 2.32 µM. For the same compound, the TGI (SNB-19 CNS) was 6.73 µM, the GI50 (SNB-75 CNS) was 3.63 µM and the TGI (SNB-75 CNS) was greater than 25 µM. The GI50 (SR leukemia) was 0.798 µM, the TGI (SR leukemia) was greater than 25 µM and the GI50 (SW-620 colon) was 1.43 µM. The TGI (SW-620 colon) was greater than 25 µM, the GI50 (T-47D breast) was 3.24 µM and the TGI (T-47D breast) was 16.2 µM. For the same compound, the GI50 (TK-10 renal) was 5.41 µM, the TGI (TK-10 renal) was 13.9 µM and the GI50 (U251 CNS) was 1.02 µM. It also gave a TGI (U251 CNS) of 3.49 µM, a GI50 (UACC-257 melanoma) of 7.24 µM and a TGI (UACC-257 melanoma) of 19 µM. The GI50 (UACC-62 melanoma) was 3.94 µM, the TGI (UACC-62 melanoma) was 9.48 µM and the GI50 (UO-31 renal) was 1.69 µM. It also gave a TGI (UO-31 renal) of 5.11 µM.

Source: PubChem BioAssay (NCI)
